In US20240173353A1, “UNIVERSAL CHIMERIC ANTIGEN RECEPTOR T-CELL AND APPLICATION THEREOF” (SHANGHAI IASO BIOTECHNOLOGY CO., LTD., priority 2021, published 2024):

Test system: NK cells
Experiment: CD107a release of NK cells activated by K562
Type: cell-based, human
Method: The inventor used Miltenyi human NK sorting magnetic beads to separate NK cells from human peripheral blood, and used DAKEWE NK medium to culture and expand them in vitro. On Day 8, a population of NK cells with more than 95% having positive CD56 expression could be obtained. These NK cells were taken out and treated with 0 nM, 100 nM and 200 nM dasatinib respectively for 24 hr, and then divided into two groups, one of which was not activated, and the other group was stimulated with MHC-class I molecule-deficient K562 cells for 5 hr. Then, the CD107a release of NK cells were detected in both of them.
The inventors isolated NK cells from human PBMCs, and then cultured and differentiated them in NK medium to obtain CD56-positive NK cells with a purity higher than 95%. The exploration of the threshold of NK activation with dasatinib was carried out with seven concentrations in the range of 0-50 nM, namely 0, 10, 20, 25, 30, 40 and 50 nM, and the treatment was carried out overnight. The next day, the cells were resuspended with NK medium and activated with K562. Lymphocyte activator was used as a positive control for activation, and a part of NK cells that were not activated by K562 were also kept. Two replicates were set for each group. anti-CD107a antibody and monensin were added while carrying out activation, and after co-incubation for 6 hr, the CD107a release of CD56-positive NK cells was detected by flow cytometry.
The inventors isolated NK cells from human PBMCs, and then cultured and differentiated them in NK medium to obtain CD56-positive NK cells with a purity higher than 95%. Three pretreatments were done respectively (1) absence of dasatinib pretreatment; (2) pretreatment with […] pretreatment with 50 nM dasatinib, and the cells were cultured overnight. The next day, the concentration of dasatinib was reduced, and the concentration was adjusted to 0, 7.5, 12.5, 17.5 and 25 nM respectively. […] Two replicates were set for each group.
In order to repeatedly verify that the inhibition of NK cell activation function by dasatinib has an extended effect, the inventors repeated the above experiment. […] After 4 hr of co-incubation, CD107a release from CD56 positive NK cells was detected.
The inventors used CD3-negative cells in human PBMCs, which contained more than 5% of CD56-positive NK cells. […] The next day, the cells were resuspended with NK medium and activated with K562. Lymphocyte activator was used as a positive control for activation, and a part of NK cells that were not activated by K562 were also kept. Two replicates were set for each group. anti-CD107a antibody and monensin were added while carrying out activation, and after co-incubation for 6 hr, the CD107a release of CD56-positive NK cells was detected by flow cytometry.
The inventors isolated NK cells from human PBMCs, and then cultured and differentiated them in NK medium to obtain CD56-positive NK cells with a purity higher than 95%. […] Two replicates were set for each group.

With `Cc1nc(Nc2ncc(C(=O)Nc3c(C)cccc3Cl)s2)cc(N2CCN(CCO)CC2)n1` [dasatinib] the “concentration that effectively inhibits NK cell activation in vitro (minimum)” value (0-50 nM overnight, K562 6 hr) was 30 nM, the “concentration enough to inhibit CD107a translocation and activation of NK cells” value (24 hr treatment, K562 5 hr) was 100 nM and the cells still activated (NK cells without pretreatment, 7.5 nM dasatinib 4 hr, K562) was “about 4.4%”. For the same compound, the “release of CD107a” value (NK cells, 25 nM and 50 nM pretreatment, changed to 12.5, 17.5 and 25 nM, K562) was “lower than 1%”, the “release of CD107a” value (NK cells, 25 nM and 50 nM pretreatment, reduced to 7.5 nM, K562) was “lower than 1%” and the CD107a translocation (NK cells, 100 nM and 200 nM dasatinib 24 hr, K562 5 hr) was 2%. The “release of CD107a” value (NK cells, pretreatment with three dasatinib concentrations (0, 25, 50 nM), reduced to 0 nM, K562) was “above 58%”, the “positive CD107a release” value (NK cells, repeat, 50 nM pretreatment, reduced to 0 nM, K562 4 hr) was 39.7% and the “basal CD107a translocation” value (non-activated NK cells, 100 nM and 200 nM dasatinib 24 hr) was 2%.
